IC50 data for 29 molecules are collected here from patent US6683103B2, “Sulfonamides for treatment of endothelin-mediated disorders” (Texas Biotechnology Corporation, priority 1997, dated 2004).

pIC50: −log10 of the molar value. Like-named read-outs stand apart in the source and are kept apart here.

In one assay the target is T1, human ETB receptor (Homo sapiens, UniProt P24530).
T1 construct: expressed in transfected cells; host or cells: COS7 cells
T1 sequence (P24530 27-442): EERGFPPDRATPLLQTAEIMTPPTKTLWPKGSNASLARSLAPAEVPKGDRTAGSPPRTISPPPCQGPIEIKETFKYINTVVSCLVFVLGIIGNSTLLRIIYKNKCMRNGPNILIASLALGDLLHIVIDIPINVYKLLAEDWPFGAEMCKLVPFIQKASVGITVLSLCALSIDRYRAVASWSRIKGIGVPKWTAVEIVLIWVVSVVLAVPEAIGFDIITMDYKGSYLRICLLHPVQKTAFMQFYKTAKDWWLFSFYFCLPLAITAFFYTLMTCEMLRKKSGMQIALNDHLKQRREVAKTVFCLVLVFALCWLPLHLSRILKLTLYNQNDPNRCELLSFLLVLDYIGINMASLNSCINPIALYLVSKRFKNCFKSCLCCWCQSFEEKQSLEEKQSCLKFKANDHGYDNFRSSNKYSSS
Put plainly: Binding Test #2: inhibition of 125I-ET-1 binding to ETB receptors (transfected COS7 cell membranes). The method, boiled down: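 Competition with 125I-ET-1 for binding to membranes from COS7 cells transfected with human ETB receptor, used at 1 μg/50 μl binding buffer. Membranes prepared in HEPES pH 7.4 with aprotinin, including a DNase/MnCl2 step at 37 °C for 30 min.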

The next assay has as its target T2, human ETA receptors (Homo sapiens, UniProt P25101).
T2 construct: endogenous in cells; host or cells: TE 671 cells (ATCC HTB 139)
T2 sequence (P25101 21-427): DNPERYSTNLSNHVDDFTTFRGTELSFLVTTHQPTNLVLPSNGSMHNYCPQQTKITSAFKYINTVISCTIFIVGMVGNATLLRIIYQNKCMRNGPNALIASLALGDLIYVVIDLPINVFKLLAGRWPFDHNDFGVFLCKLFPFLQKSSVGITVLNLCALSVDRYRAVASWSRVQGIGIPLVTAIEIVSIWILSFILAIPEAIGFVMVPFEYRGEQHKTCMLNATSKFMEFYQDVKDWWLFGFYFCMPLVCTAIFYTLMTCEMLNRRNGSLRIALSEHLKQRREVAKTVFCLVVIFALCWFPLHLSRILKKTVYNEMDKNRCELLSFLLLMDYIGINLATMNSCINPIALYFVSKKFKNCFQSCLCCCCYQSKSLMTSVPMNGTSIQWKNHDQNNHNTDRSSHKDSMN
Nature of the assay: Binding Test #1: inhibition of 125I-ET-1 binding to ETA receptors (TE 671 cell membranes). The conditions noted are these: read-out: ETA. The method, boiled down: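 Membranes from TE 671 cells (up to 8 μg protein) incubated with ¹²⁵I-ET-1 and compound (1 nM–100 μM final) in 30 mM HEPES pH 7.4, 150 mM NaCl, 5 mM MgCl2, 0.5% bacitracin, 16–18 h at 4 °C or alternatively at 24 °C. Nonspecific binding with 80 nM ET-1; bound pellet gamma-counted, % inhibition calculated, usually triplicate.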

Setting [1] is: Table 1, † incubation at 24° C., read-out: ETB.
Where [2] appears, read: Table 1, † incubation at 24° C.
[3] abbreviates: Table 2, incubation at 4° C., read-out: ETB.
[4] abbreviates: Table 1, incubation at 4° C., read-out: ETB.

As to `Cc1noc(NS(=O)(=O)c2sccc2/C=C/c2ccc3c(c2)OCO3)c1Br` [N-(4-bromo-3-methyl-5-isoxazolyl)-3-[3,4-(methylenedioxy)-trans-styryl]thiophene-2-sulfonamide], the pIC50 at human ETB receptor (setting [1]) was 5.00; at human ETA receptors (setting [2]), 6.66.
On the same counts, the results for `Cc1noc(NS(=O)(=O)c2sccc2CCc2ccc3c(c2)OCO3)c1Br` [N-(4-bromo-3-methyl-5-isoxazolyl)-3-[3,4-(methylenedioxy)phenethyl]thiophene-2-sulfonamide] are 4.74 and 6.63.
On the same counts, the results for `Cc1noc(NS(=O)(=O)c2sccc2-c2ccc3c(c2)OCO3)c1Br` [N-(4-bromo-3-methyl-5-isoxazolyl)-3-[(3,4-methylenedioxy)phenyl]thiophene-2-sulfonamide] are 4.10 and 6.30.
Take `Cc1noc(NS(=O)(=O)c2cccc(-c3ccccc3)c2)c1Br` [N-(4-bromo-3-methyl-5-isoxazolyl)-3-biphenylsulfonamide]: the pIC50 at human ETB receptor (setting [3]) is 6.12; on human ETB receptor (read-out: IC50 for ETB receptors), ~6.12; at human ETA receptors (Table 2, incubation at 4° C.), ~7.52.
Regarding `Cc1ccsc1S(=O)(=O)Nc1onc(C)c1Br` [N-(4-bromo-3-methyl-5-isoxazolyl)-3-methylthiophene-2-sulfonamide], the pIC50 on human ETB receptor (setting [4]) was 5.15; at human ETA receptors (Table 1, incubation at 4° C.), 6.19.
On the same counts, the results for `Cc1noc(NS(=O)(=O)c2sccc2Oc2ccccc2)c1Br` [N-(4-bromo-3-methyl-5-isoxazolyl)-3-phenoxythiophene-2-sulfonamide] are 5.46 and 6.99.
On to `Cc1noc(NS(=O)(=O)c2sccc2-c2ccccc2)c1Br` [N-(4-bromo-3-methyl-5-isoxazolyl)-3-phenylthiophene-2-sulfonamide], for which the pIC50 on human ETB receptor (setting [4]) is 4.95; on human ETA receptors (Table 1, incubation at 4° C.), 7.26.
On to `Cc1noc(NS(=O)(=O)c2sccc2CC=Cc2cc3c(cc2COC2CCCCO2)OCO3)c1Br` (stereo not drawn) [N-(4-bromo-3-methyl-5-isoxazolyl)-3-{2-[(tetrahydro-4H-pyran-2-ylxoy)methyl]-4,5-(methylenedioxy)cinnamyl}thiophene-2-sulfonamide], for which the pIC50 on human ETB receptor (setting [4]) was 5.38; at human ETA receptors (setting [2]), 7.01.
Consider `CCCc1cc2c(cc1OCc1ccsc1S(=O)(=O)Nc1onc(C)c1Br)OCO2` [N-(4-bromo-3-methyl-5-isoxazolyl)-3-{[2-propyl-4,5-(methylenedioxy)phenoxy]methyl}thiophene-2-sulfonamide], for which the pIC50 is 5.82 at human ETB receptor (setting [1]) and ~6.70 on human ETA receptors (setting [2]).
The corresponding values for `CCCc1ccc(-c2csc(S(=O)(=O)Nc3onc(C)c3Br)c2)cc1` [N-(4-bromo-3-methyl-5-isoxazolyl)-4-(4-propylphenyl)thiophene-2-sulfonamide] are 6.36 and 6.02.
Take `Cc1noc(NS(=O)(=O)c2cc(-c3ccc(C(C)C)cc3)cs2)c1Br` [N-(4-bromo-3-methyl-5-isoxazolyl)-4-(4′-isopropylphenyl))thiophene-2-sulfonamide]: the pIC50 on human ETB receptor (setting [4]) is 5.89; on human ETA receptors (Table 1, incubation at 4° C.), 5.26.
On to `Cc1noc(NS(=O)(=O)c2cc(CCc3ccccc3)cs2)c1Br` [N-(4-bromo-3-methyl-5-isoxazolyl)-4-(phenethyl)thiophene-2-sulfonamide], for which the pIC50 was 5.40 on human ETB receptor (setting [4]) and 5.18 at human ETA receptors (Table 1, incubation at 4° C.).
Consider `Cc1noc(NS(=O)(=O)c2ccc(-c3ccccc3)cc2)c1Br` [N-(4-bromo-3-methyl-5-isoxazolyl)-4-biphenylsulfonamide], for which the pIC50 on human ETB receptor (setting [3]) was ~6.77; on human ETB receptor (Table 2, † incubation at 24° C., read-out: ETB), 5.91; at human ETA receptors (Table 2, incubation at 4° C.) it was 5.48; at human ETA receptors (Table 2, † incubation at 24° C.) it was 4.31.
For the molecule `Cc1noc(NS(=O)(=O)c2cc(-c3ccccc3)cs2)c1Br` [N-(4-bromo-3-methyl-5-isoxazolyl)-4-phenylthiophene-2-sulfonamide], the pIC50 at human ETB receptor (setting [4]) is 5.93; on human ETA receptors (Table 1, incubation at 4° C.), 6.65.
For `Cc1noc(NS(=O)(=O)c2ccc(-c3cccc4ccccc34)s2)c1Br` [N-(4-bromo-3-methyl-5-isoxazolyl)-5-(1-naphthyl)thiophene-2-sulfonamide], the values for the pIC50 at human ETB receptor (setting [1]) and on human ETA receptors (setting [2]) were 5.85 and 4.85, respectively.
The corresponding values for `CCCC#Cc1ccc(S(=O)(=O)Nc2onc(C)c2Br)s1` [N-(4-bromo-3-methyl-5-isoxazolyl)-5-(1-pentynyl)thiophene-2-sulfonamide] are 5.25 and 4.54.
With `COc1ccccc1-c1ccc(S(=O)(=O)Nc2onc(C)c2Br)s1` [N-(4-bromo-3-methyl-5-isoxazolyl)-5-(2-methoxyphenyl)thiophene-2-sulfonamide], the pIC50 at human ETB receptor (setting [4]) is 5.96; on human ETA receptors (Table 1, incubation at 4° C.), 6.42.
`Cc1ccc(-c2ccc(S(=O)(=O)Nc3onc(C)c3Br)s2)o1` [N-(4-bromo-3-methyl-5-isoxazolyl)-5-(2-methyfuranyl)thiophene-2-sulfonamide]: the results for the pIC50 on human ETB receptor (setting [1]) and on human ETA receptors (setting [2]) were 5.12 and 4.49, respectively.
As for `Cc1ccccc1-c1ccc(S(=O)(=O)Nc2onc(C)c2Br)s1` [N-(4-bromo-3-methyl-5-isoxazolyl)-5-(2-tolyl)thiophene-2-sulfonamide], the pIC50 at human ETB receptor (setting [4]) was 6.50; on human ETA receptors (Table 1, incubation at 4° C.), 6.36.
Consider `Cc1noc(NS(=O)(=O)c2ccc(-c3cccs3)s2)c1Br` [N-(4-bromo-3-methyl-5-isoxazolyl)-5-(2′-thienyl)thiophene-2-sulfonamide], for which the pIC50 on human ETB receptor (setting [4]) was 6.44; on human ETA receptors (Table 1, incubation at 4° C.), 5.29.
As for `Cc1noc(NS(=O)(=O)c2ccc(C#CC(C)(C)C)s2)c1Br` [N-(4-bromo-3-methyl-5-isoxazolyl)-5-(3,3-dimethylbutyn-1-yl)thiophene-2-sulfonamide], the pIC50 on human ETB receptor (setting [4]) was 4.62; at human ETB receptor (setting [1]), 4.45; at human ETA receptors (Table 1, incubation at 4° C.), 5.95; on human ETA receptors (setting [2]), 5.14.
On to `Cc1noc(NS(=O)(=O)c2ccc(-c3cccc(N)c3)s2)c1Br` [N-(4-bromo-3-methyl-5-isoxazolyl)-5-(3-aminophenyl)thiophene-2-sulfonamide], for which the pIC50 was 5.97 on human ETB receptor (setting [4]); 5.58 on human ETB receptor (setting [1]); 6.27 on human ETA receptors (Table 1, incubation at 4° C.); 5.84 on human ETA receptors (setting [2]).
With `COc1cccc(-c2ccc(S(=O)(=O)Nc3onc(C)c3Br)s2)c1` [N-(4-bromo-3-methyl-5-isoxazolyl)-5-(3-methoxyphenyl)thiophene-2-sulfonamide], the pIC50 at human ETB receptor (setting [4]) is 6.11; at human ETB receptor (setting [1]), 5.33; on human ETA receptors (Table 1, incubation at 4° C.), 5.49; at human ETA receptors (setting [2]), 4.63.
Consider `Cc1noc(NS(=O)(=O)c2ccc(-c3cccc([N+](=O)[O-])c3)s2)c1Br` [N-(4-bromo-3-methyl-5-isoxazolyl)-5-(3-nitrophenyl)thiophene-2-sulfonamide], for which the pIC50 on human ETB receptor (setting [1]) was 5.35; at human ETA receptors (setting [2]), 4.59.
On to `Cc1noc(NS(=O)(=O)c2ccc(-c3ccsc3)s2)c1Br` [N-(4-bromo-3-methyl-5-isoxazolyl)-5-(3-thienyl)thiophene-2-sulfonamide], for which the pIC50 on human ETB receptor (setting [4]) is 6.42; on human ETA receptors (Table 1, incubation at 4° C.), 5.35.
For the molecule `Cc1cccc(-c2ccc(S(=O)(=O)Nc3onc(C)c3Br)s2)c1` [N-(4-bromo-3-methyl-5-isoxazolyl)-5-(3-tolyl)thiophene-2-sulfonamide], the pIC50 on human ETB receptor (setting [1]) is 5.38; at human ETA receptors (setting [2]) it was 4.82.
Consider `Cc1noc(NS(=O)(=O)c2ccc(-c3ccc(C(=O)O)cc3)s2)c1Br` [N-(4-bromo-3-methyl-5-isoxazolyl)-5-(4-carboxyphenyl)thiophene-2-sulfonamide], for which the pIC50 on human ETB receptor (setting [1]) was 4.51; at human ETA receptors (setting [2]), < 4.00.
Turning to `CCc1ccc(-c2ccc(S(=O)(=O)Nc3onc(C)c3Br)s2)cc1` [N-(4-bromo-3-methyl-5-isoxazolyl)-5-(4-ethylphenyl)thiophene-2-sulfonamide], the pIC50 on human ETB receptor (setting [4]) was 7.07; at human ETA receptors (Table 1, incubation at 4° C.), 5.49.
Consider `COc1ccc(-c2ccc(S(=O)(=O)Nc3onc(C)c3Br)s2)cc1` [N-(4-bromo-3-methyl-5-isoxazolyl)-5-(4-methoxyphenyl)thiophene-2-sulfonamide], for which the pIC50 is 6.44 at human ETB receptor (setting [4]); 5.62 on human ETB receptor (setting [1]); 5.06 on human ETA receptors (Table 1, incubation at 4° C.); 4.58 at human ETA receptors (setting [2]).
